In patent US8491897B2, “Treatment of neuropathic pain using anti-thrombospondin antibodies” (The Board of Trustees of the Leland Stanford Junior …, priority 2007, dated 2013):
Entries after “also recorded” stand apart in the source; their conditions may differ.

What was measured:
[1] = Weight gain and general health of injected pups; assay type: in vivo, mice; settings: 400 mg/kg daily or 200 mg/kg three times a day i.p., vs saline
Experimental: In three independent experiments, two litters of wild type mice (n=3×12, FVB background) were given daily intraperitoneal injections of either a single dose of 400 mg/kg of GBP (Sigma-Aldrich) or a matching volume of saline solution (PBS). In one experiment the mice were injected with 200 mg/kg GBP (n=6) three times a day and the controls received the same volume of saline solution (n=6). […] Samples were blinded during analysis of the barrel cortex plasticity.

RGCs = test: Inhibition of TSP-, astrocyte/ACM- or Hevin-induced synapse formation in RGC cultures; assay type: cell-based, rat
Experimental: RGCs were purified by sequential immunopanning to greater than 99.5% purity from P5 Sprague-Dawley rats (Simonsen Labs, Gilroy, Calif.), as previously described (Barres et. al. (1988) Neuron 9, 791). Approximately 30,000 RGCs were cultured per well in 24-well plates (Falcon) on glass (Assistant) or Aclar 22C (Allied Signal) coverslips coated with poly-D-lysine (10 μg/ml) followed by laminin (2 μg/ml). RGCs were cultured in 600 μl of serum-free medium, modified from Bottenstein and Sato (1979), containing Neurobasal (Gibco), bovine serum albumin, selenium, putrescine, triiodo-thyronine, transferrin, progesterone, pyruvate (1 mM), glutamine (2 mM), CNTF (10 ng/ml), BDNF (50 ng/ml), insulin (5 μg/ml), and forskolin (10 μM). Recombinant human BDNF and CNTF were generously provided by Regeneron Pharmaceuticals.
Purified human platelet TSP1 was from either Sigma or Haematologic Technologies with similar results. Recombinant TSP2 was purified from serum-free medium conditioned by baculovirus-infected insect cells expressing mouse TSP2. Since purified TSP1 is readily available, we used this as the source of TSP in our experiments unless otherwise stated TSPs were used at a concentration of 5 μg/ml unless otherwise specified. RCGs were cultured for 4 days to allow robust process outgrowth and then cultured with TSPs for an additional 6 days. All other reagents were obtained from Sigma.
For preparation of ACM, confluent cultures of astrocytes in 10 cm dishes were washed 3× in PBS and fed with 10 mls RGC medium (without CNTF, BDNF or forskolin). ACM was harvested after 4-6 days of conditioning, filtered through a 0.2 μm syringe filter and concentrated 10× through a 5 KD molecular weight cut-off centrifuge concentrator (Millipore), unless otherwise indicated. ACM was used at a final concentration of 5× unless otherwise indicated. RCGs were cultured for 4 days to allow robust process outgrowth and then cultured with ACM or an astrocyte-feeding layer for an additional 6 days.
For synapse quantification, cultures were fixed for 7 min in 4% paraformaldehyde (PFA), washed 3× in phosphate buffered saline (PBS) and blocked in 100 μL of blocking buffer (50% Antibody Buffer (0.5% bovine serum albumin, 0.5% Triton X-100, 30 mM NaPO4, 750 mM NaCl, 5% normal goat serum, and 0.4% NaN3, pH 7.4), 50% goat serum (NGS), 0.1% Triton-X) for 30 min. After blocking, cover slips were washed 3× in PBS and 100 μL of primary antibody solution was added to each cover slip, consisting of rabbit anti-synaptotagmin (cytosolic domain, Synaptic Systems) and mouse anti-PSD-95 (6G6-1C9 clone, Affinity Bio Reagents) diluted 1:500 in antibody buffer. Coverslips were incubated overnight at 4° C., washed 3× in PBS, and incubated with 100 μL of secondary antibody solution containing Alexa-594 conjugated goat anti-rabbit and Alexa-488 conjugated goat anti-mouse (Molecular Probes) diluted 1:1000 in antibody buffer. Following incubation for 2 h at room temperature, coverslips were washed five times in PBS and mounted in Vectashield mounting medium with DAPI (Vector Laboratories Inc) on glass slides (VWR Scientific). For presynaptic activity assay, rabbit synaptotagmin antiserum was generated by immunization with a peptide corresponding to the N-terminal luminal portion of synaptotagmin. This serum was added at 1:500 to live cultures and incubated for 6 hours. Cells were then washed 3× in DPSB, fixed and stained as above, except for the omission of synaptotagmin antibody from the primary antibody solution.
Mounted coverslips were imaged using Nikon Diaphot and Eclipse epifluorescence microscopes (Nikon). Healthy cells that were at least 2 cell diameters from their nearest neighbor were identified and selected at random by eye using DAPI fluorescence. 8-bit digital images of the fluorescence emission at both 594 nm and 488 nm were recorded for each selected cell using a cooled monochrome CCD camera and SPOT image capture software (Diagnostic Instruments, Inc). […]

Question: With NCC1(CC(=O)O)CCCCC1 [Gabapentin, 1-(aminomethyl)cyclohexaneacetic acid] as the compound, how does the “weight gain and general health” value [1] read?
Answer: showed no differences

Question: And the “effect on SD2-induced synapse formation” value (RGCs)?
Answer: completely inhibited synapse formation; also recorded: inhibited TSP induced synapse formation; also recorded: blocks TSPs synaptogenic effect; also recorded: blocks the synaptogenic activity of SD2

Question: And the “effect on SD2-induced synapses” value (RGCs)?
Answer: synapse formation was not affected; also recorded: does not decrease synapse numbers

Question: And the “effect on already formed synapses (synapse number)” value (RGCs)?
Answer: did not decreased the synapse number

Question: What about the “effect on synapse formation induced by Hevin” value (RGCs) of the same compound?
Answer: does not inhibit the synapse formation; also recorded: did not affect

Question: And the “effect on synaptogenic effect of TSP2 EGF-like domains” value (RGCs)?
Answer: diminished its synaptogenic effect

Question: What about the “effect on TSP and astrocyte-induced synapse formation” value (RGCs; 32 μM) of the same compound?
Answer: strongly inhibited both TSP and astrocyte-induced synapse formation

Question: What about the “effect on synapse formation induced by TSP1 or TSP2 EGF-like domains” value (RGCs; 32 μM) of the same compound?
Answer: blocked the synaptogenic effect; also recorded: reduces the number of synapses formed by RGCs down to background levels

Question: What about the “effect on synaptogenic effect of astrocyte conditioned media (ACM)” value (RGCs; 32 μM) of the same compound?
Answer: diminished the synaptogenic effect of both rat and mouse ACM; also recorded: able to block all of ACMs synaptogenic activity
